# Article PMC3624624 (Bioorganic & medicinal chemistry letters, 2013)
# Legend:
# [1] = test system: H9; experiment: MTS toxicity on H9; type: cell-based; details: H9, 72 h, concentrations up to 4 μM, data not shown
# [2] = test system: X4 strains of HIV-1; experiment: TZM-bl HIV-1 neutralization assay, X4 isolates; type: cell-based; details: TZM-bl cells, Fig. 3B
# [3] = test system: TZM-bl; experiment: MTS toxicity on TZM-bl; type: cell-based; details: 72 h, concentrations up to 4 μM, data not shown
# [4] = target: CD4 (Homo sapiens, UniProt P01730); experiment: Inhibition of binding of control anti-CD4 mAb Sim.2 to cells; type: cell-based; details: titration, H9 cells and primary T cell blasts, Fig. 2B
# [5] = target: T1, CXCR4 (Homo sapiens, UniProt P61073); experiment: Inhibition of binding of anti-CXCR4 mAbs to cells; type: cell-based; details: for inhibition of binding of anti-CXCR4 mAb 12G5 / inhibition of binding of anti-CXCR4 mAb 44708 / inhibition of binding of anti-CXCR4 mAb 44716 / inhibition of binding of anti-CXCR4 mAb 44717: 3 μM, Fig. 2C; for blocking of anti-CXCR4 mAb 44716 binding: H9 lymphoma cells, 1 μM compound, Fig. 2A; for inhibition of anti-CXCR4 mAb 12G5 binding: titration, H9 cells and primary T cell blasts, Fig. 2B
# [6] = test system: PHA blast cultures; experiment: MTS toxicity on PHA blast cultures; type: cell-based; details: 72 h, concentrations up to 4 μM, data not shown
# [7] = target: T1, CXCR4; experiment: Fluorescent T-140/CXCR4 cross-link inhibition; type: binding
# T1 sequence (P61073 whole entry): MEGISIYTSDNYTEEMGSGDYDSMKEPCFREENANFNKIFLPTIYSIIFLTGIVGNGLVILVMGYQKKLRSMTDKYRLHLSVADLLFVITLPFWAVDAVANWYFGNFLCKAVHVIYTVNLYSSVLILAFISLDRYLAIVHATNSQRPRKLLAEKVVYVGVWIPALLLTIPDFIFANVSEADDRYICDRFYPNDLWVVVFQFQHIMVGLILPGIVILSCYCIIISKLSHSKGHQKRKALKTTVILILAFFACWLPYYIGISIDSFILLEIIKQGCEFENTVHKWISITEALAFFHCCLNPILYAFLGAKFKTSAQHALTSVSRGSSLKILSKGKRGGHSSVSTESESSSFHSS
Structure (SMILES),inhibition in MTS dye reduction [1],inhibition of a panel of four X4-tropic viruses [2],inhibition in MTS dye reduction [3],inhibition of anti-CD4 mAb Sim.2 binding [4],inhibition of binding of anti-CXCR4 mAb 12G5 [5],inhibition of binding of anti-CXCR4 mAb 44708 [5],inhibition of binding of anti-CXCR4 mAb 44716 [5],inhibition of binding of anti-CXCR4 mAb 44717 [5],blocking of anti-CXCR4 mAb 44716 binding [5],inhibition of anti-CXCR4 mAb 12G5 binding [5],inhibition in MTS dye reduction [6],fold higher CXCR4 affinity than the previously published phenylguanides [7] [fold]
"N=C(NCCCNCCCCN(CCCNC(=N)Nc1cccc2ccccc12)C(=N)Nc1cccc2ccccc12)Nc1cccc2ccccc12 [spermine tris-1-NapG, spermine tris-1-naphthylguanide]",no significant inhibition,all were inhibited at submicromolar concentrations,no significant inhibition,not anti-CD4,completely inhibited,only partly inhibited,completely inhibited,only partly inhibited,most effective,inhibits anti-CXCR4 binding,no significant inhibition,5
"N=C(NCCCNCCCCN(CCCNC(=N)Nc1ccc2ccccc2c1)C(=N)Nc1ccc2ccccc2c1)Nc1ccc2ccccc2c1 [spermine tris-2-NapG, spermine tris-2-naphthylguanide]",,,,,,,,,next best,,,
"NCCCNCCCCNCCCN [spermine, reference compound]",,,,,No inhibition,No inhibition,No inhibition,No inhibition,,does not inhibit,,
